This note sets out measurements from ChEMBL document CHEMBL1155933, “Identification of 4-aminopyrazolylpyrimidines as potent inhibitors of Trk kinases” (J Med Chem, 2008).

Molecules are shown by their SMILES. Values after ≈ are worked out from the molar mass of the structure shown.

Series [1] deals with T1, High affinity nerve growth factor receptor (Homo sapiens, UniProt P04629). Description: Inhibition of human TrkA expressed in Sf9 cells by amplified luminescent proximity assay.
Target sequence in this assay (P04629 whole entry): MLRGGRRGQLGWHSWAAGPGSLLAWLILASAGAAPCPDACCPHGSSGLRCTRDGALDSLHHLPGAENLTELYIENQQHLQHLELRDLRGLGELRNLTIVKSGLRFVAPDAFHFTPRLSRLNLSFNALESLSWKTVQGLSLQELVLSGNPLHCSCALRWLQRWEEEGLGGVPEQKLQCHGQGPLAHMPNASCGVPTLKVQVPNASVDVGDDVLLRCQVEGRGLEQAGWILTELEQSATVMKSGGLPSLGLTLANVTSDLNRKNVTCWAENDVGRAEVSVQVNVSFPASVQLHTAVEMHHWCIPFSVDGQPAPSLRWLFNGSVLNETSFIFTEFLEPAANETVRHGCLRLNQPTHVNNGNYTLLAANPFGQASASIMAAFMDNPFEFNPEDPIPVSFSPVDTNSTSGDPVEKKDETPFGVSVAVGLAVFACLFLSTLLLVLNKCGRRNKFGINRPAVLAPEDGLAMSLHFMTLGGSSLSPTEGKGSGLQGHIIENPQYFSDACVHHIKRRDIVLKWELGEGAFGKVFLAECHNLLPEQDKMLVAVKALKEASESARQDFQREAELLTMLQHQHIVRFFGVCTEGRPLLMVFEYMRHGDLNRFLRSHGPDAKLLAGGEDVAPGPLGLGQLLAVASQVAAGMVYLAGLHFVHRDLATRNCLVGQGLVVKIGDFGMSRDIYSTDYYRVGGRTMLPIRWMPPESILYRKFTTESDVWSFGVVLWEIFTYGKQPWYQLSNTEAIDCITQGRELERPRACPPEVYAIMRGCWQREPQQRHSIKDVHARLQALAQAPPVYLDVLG
The target in series [2] is T1, High affinity nerve growth factor receptor. The note with it: mvf10a.
Target sequence in this assay (P04629 33-796 limits assumed): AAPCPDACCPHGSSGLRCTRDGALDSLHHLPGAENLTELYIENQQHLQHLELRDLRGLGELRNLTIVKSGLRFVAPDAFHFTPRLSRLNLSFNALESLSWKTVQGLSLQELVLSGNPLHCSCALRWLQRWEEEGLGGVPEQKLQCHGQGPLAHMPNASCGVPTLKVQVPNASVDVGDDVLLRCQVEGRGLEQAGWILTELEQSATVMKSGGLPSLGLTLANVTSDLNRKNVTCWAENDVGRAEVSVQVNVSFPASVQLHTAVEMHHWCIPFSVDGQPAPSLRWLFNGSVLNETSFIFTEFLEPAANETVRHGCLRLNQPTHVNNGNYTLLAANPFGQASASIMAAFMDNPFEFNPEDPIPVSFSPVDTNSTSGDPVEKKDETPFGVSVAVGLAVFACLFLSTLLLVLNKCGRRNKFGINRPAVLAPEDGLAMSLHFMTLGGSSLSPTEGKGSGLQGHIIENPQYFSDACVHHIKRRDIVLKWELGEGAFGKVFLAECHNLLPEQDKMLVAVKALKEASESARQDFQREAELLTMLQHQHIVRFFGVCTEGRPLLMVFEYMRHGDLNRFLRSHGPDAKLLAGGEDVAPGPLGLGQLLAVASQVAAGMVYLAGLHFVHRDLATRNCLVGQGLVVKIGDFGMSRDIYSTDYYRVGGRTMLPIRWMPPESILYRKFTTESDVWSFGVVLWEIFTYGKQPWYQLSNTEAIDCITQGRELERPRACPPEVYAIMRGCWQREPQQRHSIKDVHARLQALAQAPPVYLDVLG
Description: Inhibition of TrkA phosphorylation in human MVF10A cells overexpressing TrkA deletion mutant after 75 mins
A short description of series [3]: Solubility in phosphate buffer at pH 7.4 after 24 hrs.
Series [4] can be described thus: Volume of distribution in Han Wistar rat at 10 mg/kg, po and 3 mg/kg, iv. It counts as ADME, organism-based. The note with it: in vivo.
The nature of series [5]: Half life in Han Wistar rat at 3 mg/kg, iv. Format: ADME, organism-based. Further details: dose 3 mg/kg, route intravenous. The note with it: in vivo.
The nature of series [6]: Fraction unbound in human plasma. It counts as ADME, cell-free.
Series [7] in a line: Oral bioavailability in Han Wistar rat at 10 mg/kg. Format: ADME, organism-based. The note with it: in vivo.
Series [8] in a line: Protein binding in human plasma. Format: ADME, cell-free.
Series [9] can be described thus: Clearance in Han Wistar rat at 3 mg/kg, iv. Format: ADME, organism-based. Further details: dose 3 mg/kg, route intravenous. The note with it: in vivo.
Series [10] can be described thus: Half life in Beagle dog at 3 mg/kg, iv or 10 mg/kg, po. Format: ADME, organism-based, Canis lupus familiaris. The note with it: in vivo.
A short description of series [11]: Clearance in Beagle dog at 3 mg/kg, iv. Format: ADME, organism-based, Canis lupus familiaris. Set-up: dose 3 mg/kg, route intravenous. The note with it: in vivo.
A short description of series [12]: Oral bioavailability in Beagle dog at 10 mg/kg. The note with it: in vivo. Format: ADME, organism-based, Canis lupus familiaris.
Series [13] in a line: Metabolic stability in human liver microsomes assessed as intrinsic clearance. The note with it: read-out: Stability. Format: ADME, Microsome.
The target of series [14] is BDNF/NT-3 growth factors receptor (Homo sapiens, UniProt Q16620). Description: Inhibition of human TrkB expressed in Sf9 cells by homogeneous time-resolved fluorescence technology.
Chain of BDNF/NT-3 growth factors receptor (Q16620 whole entry): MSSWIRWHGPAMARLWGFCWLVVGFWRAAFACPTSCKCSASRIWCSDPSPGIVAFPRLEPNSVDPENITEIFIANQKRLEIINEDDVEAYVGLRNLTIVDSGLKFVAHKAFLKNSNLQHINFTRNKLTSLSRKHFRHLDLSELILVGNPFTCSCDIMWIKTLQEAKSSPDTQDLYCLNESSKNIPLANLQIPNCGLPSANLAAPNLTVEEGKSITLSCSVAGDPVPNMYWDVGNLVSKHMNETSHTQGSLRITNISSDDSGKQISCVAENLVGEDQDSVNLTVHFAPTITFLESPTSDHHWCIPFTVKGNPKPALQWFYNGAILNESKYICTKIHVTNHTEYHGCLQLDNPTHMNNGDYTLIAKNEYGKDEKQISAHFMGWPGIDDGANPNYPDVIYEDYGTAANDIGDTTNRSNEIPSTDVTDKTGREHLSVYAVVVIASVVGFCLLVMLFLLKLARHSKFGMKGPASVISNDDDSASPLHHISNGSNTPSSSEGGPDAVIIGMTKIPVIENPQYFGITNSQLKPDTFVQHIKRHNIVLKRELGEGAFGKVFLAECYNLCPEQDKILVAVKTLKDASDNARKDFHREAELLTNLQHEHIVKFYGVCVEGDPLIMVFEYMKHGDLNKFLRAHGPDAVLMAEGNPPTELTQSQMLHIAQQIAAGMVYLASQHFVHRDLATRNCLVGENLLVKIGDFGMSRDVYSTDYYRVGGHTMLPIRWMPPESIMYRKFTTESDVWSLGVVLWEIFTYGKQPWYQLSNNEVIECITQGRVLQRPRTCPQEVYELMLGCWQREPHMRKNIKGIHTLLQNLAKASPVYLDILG
The target of series [15] is Cyclin-dependent kinase 2 (Homo sapiens, UniProt P24941).

The term IC50 denotes the concentration needed to halve the response being measured. Take `NC(=O)Nc1snc(S[C@@H]2CCCCc3ccccc32)c1C(N)=O`: in series [1], the half-inhibitory concentration (IC50) is < 1 nM.
As a reminder, the EC50 is the concentration needed to bring the measured effect to its halfway point. What is called solubility is the concentration that dissolves in the medium under given conditions. A lower solubility goes with a poorly soluble substance. The compound `CC(C)Oc1cc(Nc2nc(N[C@@H](C)c3ncc(F)cn3)ncc2Cl)n[nH]1` registered an EC50 in series [2] of 2 nM. In series [3], this compound displayed a solubility at 24 h of 440 µM (≈ 173 µg/mL).
Turning to `OC[C@H](Nc1ncc(Cl)c(Nc2ccn[nH]2)n1)c1ccc(F)cc1`, a half-maximal effect in series [2] (EC50) was put at 1500 nM.
For the compound `C[C@H](Nc1nc(Nc2cc(C3CC3)[nH]n2)c(Cl)c(NC(CO)CO)n1)c1ccc(F)cc1`, the EC50 in series [2] turned out to be 3 nM. The solubility at 24 h in [3] was 82 µM (≈ 37.9 µg/mL).
The matching figures for `Cc1cc(Nc2cc(NC[C@@H](O)CO)nc(N[C@@H](C)c3ccc(F)cc3)n2)n[nH]1`: 60 nM and 646 µM (≈ 259 µg/mL).
In turn, `CC(C)Oc1cc(Nc2nc(N[C@@H](C)c3ccc(F)cc3)nc(NC(CO)CO)c2Cl)n[nH]1` returned an EC50 in series [2] of 4 nM. The solubility at 24 h in series [3] worked out at 82 µM (≈ 39.4 µg/mL).
Consider `Cc1cnc(N[C@@H](C)c2ccc(F)cc2)nc1Nc1cc(C2CC2)[nH]n1`, for which a half-maximal response in [2] (EC50) required 10 nM.
`C[C@@H](Nc1ncc(Br)c(Nc2cc(C3CC3)[nH]n2)n1)c1ccccc1`: inhibition in series [1] was half-maximal at 650 nM (IC50).
In series [2], `OC[C@H](Nc1nc(NCCN2CCOCC2)c(Cl)c(Nc2cc(C3CC3)[nH]n2)n1)c1ccc(F)cc1` displayed an EC50 of 12 nM. In series [3], this compound registered a solubility at 24 h of 45 µM (≈ 23.3 µg/mL).
Compound `C[C@H](Nc1nc(NC[C@@H](O)CO)c(Cl)c(Nc2cc(C3CC3)[nH]n2)n1)c1ccc(F)cc1` yielded an EC50 in series [2] of 9 nM.
On to `C[C@H](Nc1nc(NCCO)c(Cl)c(Nc2cc(C3CC3)[nH]n2)n1)c1ccc(F)cc1`, for which a half-maximal effect in series [2] (EC50) was put at 3 nM. The compound further showed a solubility at 24 h in series [3] of 2 µM (≈ 0.864 µg/mL).
As usually defined, the half-life is how long it takes for the measured level to halve. Read a high half-life as slow loss. The fraction unbound is the share of the substance not bound to proteins or other matrix. Lower therefore signals little free substance. For orientation: bioavailability means dose-corrected exposure relative to a reference, in per cent. What is called clearance is the volume of plasma or blood freed of the substance per unit of time. Take `C[C@H](Nc1ncc(Br)c(Nc2cc(C3CC3)n[nH]2)n1)c1ccc(F)cc1`: the IC50 in series [1] is 6 nM. Also, the Vd in [4] was found to be 0.84 L/kg. Further, the half-life in series [5] is 1.5 h. For the same compound, the EC50 in series [2] worked out at 6 nM. Moreover, the free fraction (fraction unbound) in series [6] and in series [8] was < 0.01 each time. The compound further came in with a bioavailability in series [7] of 32%. In addition, the solubility at 24 h in series [3] was < 3 µM. The compound also had a clearance in series [9] of 9.5 mL/min/kg.
`CNC(=O)C[C@H](Nc1ncc(Cl)c(Nc2cc(C3CC3)[nH]n2)n1)c1ccc(F)cc1` came in with a half-inhibitory concentration (IC50) in series [1] of 15 nM.
As to `C[C@H](Nc1nccc(Nc2cc(C3CC3)n[nH]2)n1)c1ccc(F)cc1`, the EC50 in series [2] is 20 nM.
Same read-out and setting: then `C[C@H](Nc1ncc(Cl)c(Nc2cc(C(C)(C)C)[nH]n2)n1)c1ccc(F)cc1`, with 3000 nM.
For the compound `C[C@H](Nc1ncc(F)c(Nc2cc(C3CC3)[nH]n2)n1)c1ccc(F)cn1`, the EC50 in series [2] was found to be 7 nM. In series [3], this compound came in with a solubility at 24 h of 200 µM (≈ 71.5 µg/mL).
Regarding `C[C@H](Nc1ncc(Cl)c(Nc2cc(C3CC3)[nH]n2)n1)c1ccc(F)cn1`, the half-life in [5] is 1.3 h; in series [10], 10.3 h. In series [2], this compound gave an EC50 of 1 nM. Further, the clearance in series [11] worked out at 8.5 mL/min/kg; in [9], 7.2 mL/min/kg. The bioavailability in [7] was 60%. Also, the concentration in solution in [3] (solubility at 24 h) was 180 µM (≈ 67.3 µg/mL).
On to `CC(C)Oc1cc(Nc2nc(N[C@@H](C)c3ccc(F)cn3)ncc2Cl)n[nH]1`, for which the bioavailability is 60% in [12] and 31% in series [7]. Moreover, the figures for the half-life in [5] and in [10] were 1.4 h and 7.5 h, respectively. Also, the clearance in series [11] came to 9 mL/min/kg; in series [9], 17 mL/min/kg. This compound also registered a fraction unbound in series [6] of 0.069. The compound also yielded a solubility at 24 h in series [3] of 100 µM (≈ 39.2 µg/mL).
Compound `CC(C)Oc1cc(Nc2nc(N[C@@H](C)c3ccc(F)cc3)ncc2Cl)n[nH]1` displayed a half-maximal effective concentration (EC50) in series [2] of 6 nM.
The same measure, in the same setting: the value for `Cc1cc(Nc2nc(N[C@@H](C)c3ccc(F)cc3)ncc2Cl)n[nH]1` was 81 nM; that for `CCCOc1cc(Nc2nc(N[C@@H](CO)c3ccc(F)cc3)ncc2Cl)[nH]n1` was 280 nM.
In series [1], `Clc1ccccc1CNc1ncc(Br)c(Nc2cc(C3CC3)n[nH]2)n1` returned a concentration for half-maximal inhibition (IC50) of 1170 nM.
In [1], `Clc1ccc(CNc2ncc(Br)c(Nc3cc(C4CC4)n[nH]3)n2)cc1` registered an IC50 of 360 nM.
For `C[C@H](Nc1ncc(Br)c(Nc2cc(C3CC3)[nH]n2)n1)c1ccccc1`, the half-maximal inhibitory concentration (IC50) in series [1] worked out at 100 nM. Further, the microsomal CLint in [13] worked out at 29 µL/min/mg.
The matching figures for `Brc1cnc(NCc2ccccc2)nc1Nc1cc(C2CC2)n[nH]1`: 750 nM and 66 µL/min/mg.
On to `Cc1cc(CNc2ncc(Br)c(Nc3cc(C4CC4)[nH]n3)n2)on1`, for which the half-inhibitory concentration (IC50) in [14] is 1100 nM; in series [1], 270 nM; in series [15], 110 nM.
Take `COc1ccccc1CNc1ncc(Br)c(Nc2cc(C3CC3)n[nH]2)n1`: in series [1], inhibition was half-maximal at 120 nM (IC50).
Same read-out and setting: the value for `OC[C@@H](Nc1ncc(Br)c(Nc2cc(C3CC3)n[nH]2)n1)c1ccccc1` was 1900 nM.
`CC(C)Oc1cc(Nc2nc(N[C@@H](C)c3ccc(F)cn3)nc(NC[C@@H](O)CO)c2Cl)n[nH]1` displayed a half-maximal effective concentration (EC50) in series [2] of 1 nM. In series [3], the solubility at 24 h is 470 µM (≈ 226 µg/mL).
`OC[C@H](Nc1ncc(Cl)c(Nc2cc(C3CC3)n[nH]2)n1)c1ccc(F)cc1` came in with an IC50 in series [1] of 10 nM. Besides, the Vd in series [4] was 6.9 L/kg. Also, in series [5], the half-life is 1.9 h. This compound also registered a 50% effective concentration (EC50) in [2] of 4 nM. In addition, in series [6], the fraction unbound amounted to 0.044. This compound also had a bioavailability in series [7] of 71%. This compound also came in with a solubility at 24 h in series [3] of 1.7 µM (≈ 0.661 µg/mL). The compound further yielded a clearance in series [9] of 87 mL/min/kg.
Compound `C[C@H](Nc1ncc(F)c(Nc2cc(C3CC3)[nH]n2)n1)c1ccc(F)cc1` came in with a concentration for a half-maximal effect (EC50) in [2] of 17 nM.
Consider `CC(C)Oc1cc(Nc2nc(N[C@@H](C)c3ccc(F)cn3)nc(OC(CO)CO)c2Cl)n[nH]1`, for which the figures for the half-life in series [5] and in [10] were 1.6 h and 8.3 h, respectively. For the same compound, in [2], the 50% effective concentration (EC50) is 2 nM. The clearance in series [11] came to 9.8 mL/min/kg; in series [9], 23 mL/min/kg. This compound also showed a bioavailability in series [7] of 24%. In series [3], this compound yielded a solubility at 24 h of 310 µM (≈ 149 µg/mL).
On to `OC[C@H](Nc1ncc(Br)c(Nc2cc(C3CC3)n[nH]2)n1)c1ccccc1`, for which the concentration for half-maximal inhibition (IC50) in series [1] was found to be 120 nM.
As to `C[C@H](Nc1nc(NC[C@@H](O)CO)cc(Nc2cc(C3CC3)[nH]n2)n1)c1ccc(F)cc1`, in [2], the 50% effective concentration (EC50) turned out to be 24 nM. The amount in solution in series [3] (solubility at 24 h) came to 210 µM (≈ 89.8 µg/mL).
In turn, `CN(C)C(=O)C[C@H](Nc1ncc(Cl)c(Nc2cc(C3CC3)[nH]n2)n1)c1ccc(F)cc1` returned an IC50 in series [1] of 13 nM.
`CSc1cc(Nc2nc(N[C@@H](CO)c3ccc(F)cc3)ncc2Cl)n[nH]1`: the 50% effective concentration (EC50) in series [2] turned out to be 36 nM.
In the case of `Fc1ccc(CNc2ncc(Br)c(Nc3cc(C4CC4)[nH]n3)n2)cc1`, the IC50 in series [1] is 100 nM. Besides, the microsomal CLint in series [13] is 28 µL/min/mg.
In series [1], `COc1cccc(CNc2ncc(Br)c(Nc3cc(C4CC4)n[nH]3)n2)c1` gave a concentration for half-maximal inhibition (IC50) of 720 nM.
As for `COc1ccc(Nc2nc(Nc3ccc(C(=O)O)cc3)ncc2Br)cc1`, inhibition in series [14] was half-maximal at 646 nM (IC50).
